Assay results taken from ChEMBL document CHEMBL5512655, “Discovery of indolylacryloyl-derived oxacins as novel potential broad-spectrum antibacterial candidates” (Eur J Med Chem, 2024).
≈ marks a conversion by molar mass, not a printed value.

Experiments:
Assay type in all cases: functional
Staphylococcus aureus [1] = experiment: Antibacterial activity against methicillin-resistant Staphylococcus aureus N315 assessed as inhibition of bacterial growth measured after 24 hrs incubation
Staphylococcus aureus [2] = experiment: Antibacterial activity against Staphylococcus aureus assessed as inhibition of bacterial growth measured after 24 hrs incubation
Staphylococcus aureus [3] = experiment: Antibacterial activity against Staphylococcus aureus ATCC 25923 assessed as inhibition of bacterial growth measured after 24 hrs incubation
Staphylococcus aureus [4] = experiment: Antibacterial activity against Staphylococcus aureus ATCC 29213 assessed as inhibition of bacterial growth measured after 24 hrs incubation
Enterococcus faecalis = experiment: Antibacterial activity against Enterococcus faecalis assessed as inhibition of bacterial growth measured after 24 hrs incubation
Klebsiella pneumoniae = experiment: Antibacterial activity against Klebsiella pneumonia assessed as inhibition of bacterial growth measured after 24 hrs incubation
Escherichia coli [5] = experiment: Antibacterial activity against Escherichia coli assessed as inhibition of bacterial growth measured after 24 hrs incubation
Escherichia coli [6] = experiment: Antibacterial activity against Escherichia coli ATCC 25922 assessed as inhibition of bacterial growth measured after 24 hrs incubation
Pseudomonas aeruginosa [7] = experiment: Antibacterial activity against Pseudomonas aeruginosa assessed as inhibition of bacterial growth measured after 24 hrs incubation
Pseudomonas aeruginosa [8] = experiment: Antibacterial activity against Pseudomonas aeruginosa ATCC 27853 assessed as inhibition of bacterial growth measured after 24 hrs incubation
Acinetobacter baumannii = experiment: Antibacterial activity against Acinetobacter baumannii assessed as inhibition of bacterial growth measured after 24 hrs incubation

Structure (SMILES)	MIC (Staphylococcus aureus [1])	MIC (Staphylococcus aureus [2])	MIC (Staphylococcus aureus [3])	MIC (Staphylococcus aureus [4])	MIC (Enterococcus faecalis)	MIC (Klebsiella pneumoniae)	MIC (Escherichia coli [5])	MIC (Escherichia coli [6])	MIC (Pseudomonas aeruginosa [7])	MIC (Pseudomonas aeruginosa [8])	MIC (Acinetobacter baumannii)
CCn1cc(C(=O)O)c(=O)c2cc(F)c(N3CCN(C(=O)/C(C#N)=C/c4cn(CC5CCCC5)c5ccccc45)CC3)cc21	32 µg/mL (≈ 53.7 µM)	16 µg/mL (≈ 26.9 µM)	1 µg/mL (≈ 1.68 µM)	2 µg/mL (≈ 3.36 µM)	8 µg/mL (≈ 13.4 µM)	0.5 µg/mL (≈ 0.839 µM)	4 µg/mL (≈ 6.72 µM)	1 µg/mL (≈ 1.68 µM)	0.5 µg/mL (≈ 0.839 µM)	1 µg/mL (≈ 1.68 µM)	16 µg/mL (≈ 26.9 µM)
CCn1cc(C(=O)O)c(=O)c2cc(F)c(N3CCN(C(=O)/C(C#N)=C/c4cn(CCN5CCOCC5)c5ccccc45)CC3)cc21	0.25 µg/mL (≈ 0.399 µM)	0.5 µg/mL (≈ 0.798 µM)	4 µg/mL (≈ 6.38 µM)	0.5 µg/mL (≈ 0.798 µM)	0.25 µg/mL (≈ 0.399 µM)	2 µg/mL (≈ 3.19 µM)	1 µg/mL (≈ 1.6 µM)	2 µg/mL (≈ 3.19 µM)	1 µg/mL (≈ 1.6 µM)	1 µg/mL (≈ 1.6 µM)	0.5 µg/mL (≈ 0.798 µM)
CCn1cc(C(=O)O)c(=O)c2cc(F)c(N3CCN(C(=O)/C(C#N)=C/c4c(C)[nH]c5ccccc45)CC3)cc21	2 µg/mL (≈ 3.79 µM)	1 µg/mL (≈ 1.9 µM)	4 µg/mL (≈ 7.58 µM)	0.25 µg/mL (≈ 0.474 µM)	1 µg/mL (≈ 1.9 µM)	2 µg/mL (≈ 3.79 µM)	1 µg/mL (≈ 1.9 µM)	0.25 µg/mL (≈ 0.474 µM)	1 µg/mL (≈ 1.9 µM)	0.5 µg/mL (≈ 0.948 µM)	1 µg/mL (≈ 1.9 µM)
CCn1cc(C(=O)O)c(=O)c2cc(F)c(N3CCN(C(=O)/C(C#N)=C/c4cn(CC5CC5)c5ccccc45)CC3)cc21	0.5 µg/mL (≈ 0.881 µM)	4 µg/mL (≈ 7.05 µM)	1 µg/mL (≈ 1.76 µM)	0.5 µg/mL (≈ 0.881 µM)	1 µg/mL (≈ 1.76 µM)	1 µg/mL (≈ 1.76 µM)	4 µg/mL (≈ 7.05 µM)	1 µg/mL (≈ 1.76 µM)	1 µg/mL (≈ 1.76 µM)	0.5 µg/mL (≈ 0.881 µM)	2 µg/mL (≈ 3.52 µM)
CCn1cc(C(=O)O)c(=O)c2cc(F)c(N3CCN(C(=O)/C(C#N)=C/c4c[nH]c5ccccc45)CC3)cc21	0.5 µg/mL (≈ 0.974 µM)	4 µg/mL (≈ 7.79 µM)	1 µg/mL (≈ 1.95 µM)	0.5 µg/mL (≈ 0.974 µM)	0.25 µg/mL (≈ 0.487 µM)	0.25 µg/mL (≈ 0.487 µM)	0.5 µg/mL (≈ 0.974 µM)	0.25 µg/mL (≈ 0.487 µM)	1 µg/mL (≈ 1.95 µM)	0.5 µg/mL (≈ 0.974 µM)	0.25 µg/mL (≈ 0.487 µM)
CCn1cc(C(=O)O)c(=O)c2cc(F)c(N3CCN(C(=O)/C(C#N)=C/c4cn(CC#N)c5ccccc45)CC3)cc21	2 µg/mL (≈ 3.62 µM)	4 µg/mL (≈ 7.24 µM)	0.5 µg/mL (≈ 0.905 µM)	1 µg/mL (≈ 1.81 µM)	1 µg/mL (≈ 1.81 µM)	0.5 µg/mL (≈ 0.905 µM)	2 µg/mL (≈ 3.62 µM)	2 µg/mL (≈ 3.62 µM)	0.5 µg/mL (≈ 0.905 µM)	0.5 µg/mL (≈ 0.905 µM)	1 µg/mL (≈ 1.81 µM)
CCn1cc(C(=O)O)c(=O)c2cc(F)c(N3CCN(C(=O)/C(C#N)=C/c4cn(CC=C(C)C)c5ccccc45)CC3)cc21	8 µg/mL (≈ 13.8 µM)	1 µg/mL (≈ 1.72 µM)	4 µg/mL (≈ 6.88 µM)	4 µg/mL (≈ 6.88 µM)	1 µg/mL (≈ 1.72 µM)	0.25 µg/mL (≈ 0.43 µM)	64 µg/mL (≈ 110 µM)	0.5 µg/mL (≈ 0.86 µM)	8 µg/mL (≈ 13.8 µM)	1 µg/mL (≈ 1.72 µM)	2 µg/mL (≈ 3.44 µM)
CCn1cc(C(=O)O)c(=O)c2cc(F)c(N3CCN(C(=O)/C(C#N)=C/c4cn(Cc5ccc(Cl)cc5)c5ccccc45)CC3)cc21	32 µg/mL (≈ 50.1 µM)	64 µg/mL (≈ 100 µM)	16 µg/mL (≈ 25.1 µM)	16 µg/mL (≈ 25.1 µM)	32 µg/mL (≈ 50.1 µM)	0.5 µg/mL (≈ 0.784 µM)	1 µg/mL (≈ 1.57 µM)	4 µg/mL (≈ 6.27 µM)	0.5 µg/mL (≈ 0.784 µM)	1 µg/mL (≈ 1.57 µM)	0.5 µg/mL (≈ 0.784 µM)
CCCCCCn1cc(/C=C(\C#N)C(=O)N2CCN(c3cc4c(cc3F)c(=O)c(C(=O)O)cn4CC)CC2)c2ccccc21	0.5 µg/mL (≈ 0.837 µM)	0.5 µg/mL (≈ 0.837 µM)	64 µg/mL (≈ 107 µM)	4 µg/mL (≈ 6.69 µM)	32 µg/mL (≈ 53.5 µM)	1 µg/mL (≈ 1.67 µM)	0.5 µg/mL (≈ 0.837 µM)	2 µg/mL (≈ 3.35 µM)	16 µg/mL (≈ 26.8 µM)	0.5 µg/mL (≈ 0.837 µM)	16 µg/mL (≈ 26.8 µM)
CCn1cc(C(=O)O)c(=O)c2cc(F)c(N3CCN(C(=O)/C(C#N)=C/c4c[nH]c5cc(F)ccc45)CC3)cc21	8 µg/mL (≈ 15.1 µM)	1 µg/mL (≈ 1.88 µM)	4 µg/mL (≈ 7.53 µM)	2 µg/mL (≈ 3.76 µM)	8 µg/mL (≈ 15.1 µM)	0.5 µg/mL (≈ 0.941 µM)	4 µg/mL (≈ 7.53 µM)	2 µg/mL (≈ 3.76 µM)	1 µg/mL (≈ 1.88 µM)	1 µg/mL (≈ 1.88 µM)	2 µg/mL (≈ 3.76 µM)
C#CCn1cc(/C=C(\C#N)C(=O)N2CCN(c3cc4c(cc3F)c(=O)c(C(=O)O)cn4CC)CC2)c2ccccc21	0.25 µg/mL (≈ 0.453 µM)	0.25 µg/mL (≈ 0.453 µM)	0.25 µg/mL (≈ 0.453 µM)	0.5 µg/mL (≈ 0.906 µM)	0.5 µg/mL (≈ 0.906 µM)	0.25 µg/mL (≈ 0.453 µM)	1 µg/mL (≈ 1.81 µM)	0.5 µg/mL (≈ 0.906 µM)	0.5 µg/mL (≈ 0.906 µM)	4 µg/mL (≈ 7.25 µM)	0.25 µg/mL (≈ 0.453 µM)
CCCCCCn1cc(C(=O)O)c(=O)c2cc(F)c(N3CCN(C(=O)/C(C#N)=C/c4cn(CC(=O)OCC)c5ccccc45)CC3)cc21	128 µg/mL (≈ 195 µM)	64 µg/mL (≈ 97.6 µM)	4 µg/mL (≈ 6.1 µM)	8 µg/mL (≈ 12.2 µM)	0.25 µg/mL (≈ 0.381 µM)	16 µg/mL (≈ 24.4 µM)	32 µg/mL (≈ 48.8 µM)	0.5 µg/mL (≈ 0.763 µM)	1 µg/mL (≈ 1.53 µM)	16 µg/mL (≈ 24.4 µM)	8 µg/mL (≈ 12.2 µM)
